IC50, DC50 and Dmax data for one compound are collected here from EP4759807A1, “PROTEOLYSIS TARGETING CHIMERA COMPOUND FOR DEGRADING IRAK4 AND USE THEREOF” (Shenzhen Zhongge Biological Technology Co., Ltd., priority 2023, dated 2025).

Molecules are shown by their SMILES.

The target of data set [1] is T1, hERG ion channel (Homo sapiens, UniProt Q12809).
T1 construct: host or cells: HEK293
Nature of the data set: Inhibitory effect on hERG ion channels (manual patch clamp). In kind it is cell-based. To be noted: HEK293 cells stably expressing hERG channels, read-out: hERG (IC50, manupatch). On the procedure: In this experiment, the inhibitory effect of the compound on the hERG ion channel was detected by a manual patch clamp electrophysiological method, and the cardiac safety was evaluated based on the single concentration inhibition rate or IC50 of the compound.
The cells used in this experiment were HEK293 cell lines transfected with hERG cDNA and stably expressing hERG channels (#60187, provided by BPS, P3-P23 generations were used for experimental research). The cells was cultured in a medium containing the following components: MEM medium, 10% (v/v) inactivated fetal bovine serum, 1 mM sodium pyruvate, 500 µg geneticin, 0.1 mM non-essential amino acids, 100 U penicillin-streptomycin. HEK293 hERG cells were grown in a culture flask containing the above culture solution and cultured in an incubator at 37°C and 5% CO2. […]
A manual patch clamp system (HEKA EPC-10 signal amplifier and digital conversion system, purchased from HEKA Electronics, Germany) was used to record whole-cell currents in electrophysiological experiments. […] After the hERG current recorded in the above steps reached stabilization under the continuous perfusion of extracellular solution in the recording chamber, different concentrations of the compound to be tested could be perfused until the inhibitory effect of the drug on the hERG current reached a stable state. […]

Data set [2] deals with T2, IRAK4 (Homo sapiens, UniProt Q9NWZ3).
T2 sequence (Q9NWZ3 1-460): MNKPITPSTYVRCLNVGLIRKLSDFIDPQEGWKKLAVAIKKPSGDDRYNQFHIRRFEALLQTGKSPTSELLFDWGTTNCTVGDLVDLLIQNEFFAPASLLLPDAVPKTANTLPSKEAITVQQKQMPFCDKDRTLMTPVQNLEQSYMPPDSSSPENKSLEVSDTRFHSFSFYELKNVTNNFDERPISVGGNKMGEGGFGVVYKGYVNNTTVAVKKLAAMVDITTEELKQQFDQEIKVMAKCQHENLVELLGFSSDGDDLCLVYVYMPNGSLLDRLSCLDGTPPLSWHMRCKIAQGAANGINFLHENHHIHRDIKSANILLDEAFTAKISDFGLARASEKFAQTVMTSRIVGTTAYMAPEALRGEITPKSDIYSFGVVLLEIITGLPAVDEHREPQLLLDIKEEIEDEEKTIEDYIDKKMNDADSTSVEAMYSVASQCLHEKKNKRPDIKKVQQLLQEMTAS
Nature of the data set: WB detection of proteolysis (Western Blot, THP-1 cells). In kind it is cell-based. To be noted: Western Blot, THP-1 cells, 24 h. In short, it runs like this: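 IRAK4 level in RIPA lysates read by Western blot with Odyssey imaging; values from bell-shaped non-linear fit with two four-parameter sections (Plateau1, Plateau2, Dip, LogEC50_1/2, nH1/2).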

T1 sequence (Q12809 whole entry): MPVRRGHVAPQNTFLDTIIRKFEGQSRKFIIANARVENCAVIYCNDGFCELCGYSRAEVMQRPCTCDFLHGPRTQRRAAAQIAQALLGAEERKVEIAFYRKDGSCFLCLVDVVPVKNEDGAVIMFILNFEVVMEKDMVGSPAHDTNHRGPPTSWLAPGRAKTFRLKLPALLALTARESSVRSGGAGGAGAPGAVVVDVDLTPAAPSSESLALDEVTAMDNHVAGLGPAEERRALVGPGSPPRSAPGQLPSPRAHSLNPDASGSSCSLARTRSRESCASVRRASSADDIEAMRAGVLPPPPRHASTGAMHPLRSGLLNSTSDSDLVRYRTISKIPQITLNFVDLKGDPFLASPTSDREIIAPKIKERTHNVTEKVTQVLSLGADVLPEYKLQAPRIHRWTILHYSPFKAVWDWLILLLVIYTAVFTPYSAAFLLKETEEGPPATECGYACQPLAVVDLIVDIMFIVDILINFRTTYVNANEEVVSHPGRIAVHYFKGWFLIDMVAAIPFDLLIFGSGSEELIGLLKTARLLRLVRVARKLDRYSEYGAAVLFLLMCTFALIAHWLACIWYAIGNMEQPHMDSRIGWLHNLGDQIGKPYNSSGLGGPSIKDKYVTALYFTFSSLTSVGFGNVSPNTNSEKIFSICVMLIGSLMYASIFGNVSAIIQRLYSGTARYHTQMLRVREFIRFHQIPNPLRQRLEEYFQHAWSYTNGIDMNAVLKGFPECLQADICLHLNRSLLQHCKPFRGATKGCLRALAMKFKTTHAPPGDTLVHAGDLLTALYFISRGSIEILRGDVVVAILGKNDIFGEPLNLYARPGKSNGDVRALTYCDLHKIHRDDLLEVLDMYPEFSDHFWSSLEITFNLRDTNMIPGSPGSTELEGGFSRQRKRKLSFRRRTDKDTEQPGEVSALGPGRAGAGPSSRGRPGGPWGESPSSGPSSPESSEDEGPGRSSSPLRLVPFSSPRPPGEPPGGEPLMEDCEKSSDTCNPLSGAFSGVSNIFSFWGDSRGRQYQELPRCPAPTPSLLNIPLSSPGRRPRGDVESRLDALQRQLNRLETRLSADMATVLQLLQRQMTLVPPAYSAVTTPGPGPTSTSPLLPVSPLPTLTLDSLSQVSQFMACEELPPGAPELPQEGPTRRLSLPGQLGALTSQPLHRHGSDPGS

For the compound `Cn1c(=O)n(C2CCC(=O)NC2=O)c2cccc(N3CCC(N4CCN(C[C@H]5CC[C@H](n6cc(-n7cc(-c8cnn9ccc(N%10CCC[C@H](O)C%10)nc89)nn7)c(C(F)F)n6)CC5)CC4)CC3)c21` (stereo partly drawn) [Example 146], the IC50 in data set [1] was 7.06 µM. The DC50 in data set [2] (read-out: DC50) was under 0.01 µM. In data set [2] (read-out: Dmax), the Dmax is over 70%.
